The supplement of paper PMC10307832

What was measured:
Test in all cases: relative viability (nuclei count vs DMSO), 5 days (fraction); higher = more cells survive
Irinotecan + Pemetrexed = compound: CCc1c2c(nc3ccc(OC(=O)N4CCC(N5CCCCC5)CC4)cc13)-c1cc3c(c(=O)n1C2)COC(=O)[C@]3(O)CC [Irinotecan] + Nc1nc2[nH]cc(CCc3ccc(C(=O)N[C@@H](CCC(=O)O)C(=O)O)cc3)c2c(=O)[nH]1 [Pemetrexed] (partner 0.2 µM)
In short: (§1)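 Nuclei were stained with Hoechst during a one-step fixation (final 0.05% Triton X-100, 1% formaldehyde, 1 ug/ml Hoechst) carried out 5 days after dosing, then counted on 4× images. The cells, lung cancer lines in 1536-well plates, had been dosed by pin tool the day after seeding with one drug alone or a fixed anchor-drug dose plus five library-drug doses (not always all listed) in √10 steps. Relative viability is the nuclei count in treated wells divided by that in vehicle wells, and each value is the median of duplicate plates.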

Irinotecan + OSI-027 = compound: CCc1c2c(nc3ccc(OC(=O)N4CCC(N5CCCCC5)CC4)cc13)-c1cc3c(c(=O)n1C2)COC(=O)[C@]3(O)CC [Irinotecan] + COc1cccc2cc(-c3nc([C@H]4CC[C@H](C(=O)O)CC4)n4ncnc(N)c34)[nH]c12 [OSI-027] (partner 0.5 µM)
In short: as §1

Irinotecan + Lapatinib = compound: CCc1c2c(nc3ccc(OC(=O)N4CCC(N5CCCCC5)CC4)cc13)-c1cc3c(c(=O)n1C2)COC(=O)[C@]3(O)CC [Irinotecan] + CS(=O)(=O)CCNCc1ccc(-c2ccc3ncnc(Nc4ccc(OCc5cccc(F)c5)c(Cl)c4)c3c2)o1 [Lapatinib] (partner 2 µM)
In short: as §1

MK-8033 + Crizotinib = compound: Cn1cc(-c2cnc3ccc4ccc(CS(=O)(=O)NCc5ccccn5)cc4c(=O)c3c2)cn1 [MK-8033] + C[C@@H](Oc1cc(-c2cnn(C3CCNCC3)c2)cnc1N)c1c(Cl)ccc(F)c1Cl [Crizotinib] (partner 1 µM)
In short: as §1

UMC-11
relative viability (Irinotecan + Pemetrexed; first compound 0.6325 µM): 0.46 | relative viability (Irinotecan + Pemetrexed; first compound 2 µM): 0.436 | relative viability (Irinotecan + Pemetrexed; first compound 6.325 µM): 0.288 | relative viability (Irinotecan + Pemetrexed; first compound 20 µM): 0.228 | relative viability (Irinotecan + OSI-027; first compound 0.6325 µM): 0.461 | relative viability (Irinotecan + OSI-027; first compound 2 µM): 0.475 | relative viability (Irinotecan + OSI-027; first compound 6.325 µM): 0.279 | relative viability (Irinotecan + OSI-027; first compound 20 µM): 0.155 | relative viability (Irinotecan + Lapatinib; first compound 0.6325 µM): 0.354 | relative viability (Irinotecan + Lapatinib; first compound 2 µM): 0.452 | relative viability (Irinotecan + Lapatinib; first compound 6.325 µM): 0.259 | relative viability (Irinotecan + Lapatinib; first compound 20 µM): 0.2 | relative viability (MK-8033 + Crizotinib; first compound 0.02 µM): 0.737 | relative viability (MK-8033 + Crizotinib; first compound 0.06325 µM): 0.459 | relative viability (MK-8033 + Crizotinib; first compound 0.2 µM): 0.734 | relative viability (MK-8033 + Crizotinib; first compound 0.6325 µM): 0.678 | relative viability (MK-8033 + Crizotinib; first compound 2 µM): 0.697
